Laboratory results as given in patent US9422267B2, “Fused pyrimidine compounds and use thereof” (Medivation Technologies, Inc., priority 2012, dated 2016).

Legend:
Type in all cases: biochemical
[1] = target: FGR (Homo sapiens, UniProt P09769); assay: Caliper kinase profiling: FGR
[2] = target: T1, EPHA1 (Homo sapiens, UniProt P21709); assay: Caliper kinase profiling: EPHA1
T1 sequence (P21709 26-976): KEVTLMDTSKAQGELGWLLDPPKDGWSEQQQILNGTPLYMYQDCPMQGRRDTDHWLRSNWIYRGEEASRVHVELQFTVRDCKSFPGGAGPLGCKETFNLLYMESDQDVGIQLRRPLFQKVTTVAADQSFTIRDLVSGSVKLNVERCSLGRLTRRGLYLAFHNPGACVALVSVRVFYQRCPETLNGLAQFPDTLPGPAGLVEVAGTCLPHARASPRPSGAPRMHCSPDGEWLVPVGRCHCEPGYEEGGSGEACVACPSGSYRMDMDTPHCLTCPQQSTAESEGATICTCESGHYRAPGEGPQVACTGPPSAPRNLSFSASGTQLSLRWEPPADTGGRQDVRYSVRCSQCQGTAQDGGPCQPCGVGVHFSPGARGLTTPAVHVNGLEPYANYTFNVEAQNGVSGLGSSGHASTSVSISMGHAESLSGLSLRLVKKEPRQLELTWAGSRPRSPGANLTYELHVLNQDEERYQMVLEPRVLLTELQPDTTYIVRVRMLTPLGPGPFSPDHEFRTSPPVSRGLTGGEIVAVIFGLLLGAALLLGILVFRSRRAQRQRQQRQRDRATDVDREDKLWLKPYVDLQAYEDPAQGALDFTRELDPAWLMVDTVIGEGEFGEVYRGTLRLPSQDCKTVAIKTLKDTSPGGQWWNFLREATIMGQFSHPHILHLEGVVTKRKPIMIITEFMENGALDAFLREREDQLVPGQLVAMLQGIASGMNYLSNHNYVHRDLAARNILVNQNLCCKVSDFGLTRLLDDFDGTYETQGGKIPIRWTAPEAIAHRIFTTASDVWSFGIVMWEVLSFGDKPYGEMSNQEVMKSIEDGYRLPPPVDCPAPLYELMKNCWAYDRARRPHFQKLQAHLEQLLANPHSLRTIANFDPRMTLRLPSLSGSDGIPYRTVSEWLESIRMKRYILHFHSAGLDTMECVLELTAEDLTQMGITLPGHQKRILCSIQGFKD

[3] = target: FLT4 (Homo sapiens, UniProt P35916); assay: Caliper kinase profiling: FLT4; conditions: FLT4, 1 μM; read-out: Average % Inh @ 1 μM
[4] = target: FGFR3(K650E) (Homo sapiens, UniProt P22607, K650E); assay: Caliper kinase profiling: FGFR3(K650E); conditions: read-out: Average % Inh @ 1 μM
[5] = target: Flt3(D835Y) (Homo sapiens, UniProt P36888, D835Y); assay: Caliper kinase profiling: Flt3(D835Y); conditions: read-out: Average % Inh @ 1 μM
[6] = target: T2, ALK (Homo sapiens, UniProt Q9UM73); assay: Caliper kinase profiling: ALK
T2 construct: purchased Caliper LifeSciences (ProfilerPro Kinase Selectivity Assay Kits)

[7] = target: LYN (Homo sapiens, UniProt P07948); assay: Caliper kinase profiling: LYN
[8] = target: FYN (Homo sapiens, UniProt P06241); assay: Caliper kinase profiling: FYN
[9] = target: Hck (Homo sapiens, UniProt P08631); assay: Caliper kinase profiling: Hck
[10] = 10 nM, read-out: Average % Inh @ 10 nM
[11] = 100 nM, read-out: Average % Inh @ 100 nM
[12] = 1 μM, read-out: Average % Inh @ 1 μM

T2 sequence (Q9UM73 19-1620): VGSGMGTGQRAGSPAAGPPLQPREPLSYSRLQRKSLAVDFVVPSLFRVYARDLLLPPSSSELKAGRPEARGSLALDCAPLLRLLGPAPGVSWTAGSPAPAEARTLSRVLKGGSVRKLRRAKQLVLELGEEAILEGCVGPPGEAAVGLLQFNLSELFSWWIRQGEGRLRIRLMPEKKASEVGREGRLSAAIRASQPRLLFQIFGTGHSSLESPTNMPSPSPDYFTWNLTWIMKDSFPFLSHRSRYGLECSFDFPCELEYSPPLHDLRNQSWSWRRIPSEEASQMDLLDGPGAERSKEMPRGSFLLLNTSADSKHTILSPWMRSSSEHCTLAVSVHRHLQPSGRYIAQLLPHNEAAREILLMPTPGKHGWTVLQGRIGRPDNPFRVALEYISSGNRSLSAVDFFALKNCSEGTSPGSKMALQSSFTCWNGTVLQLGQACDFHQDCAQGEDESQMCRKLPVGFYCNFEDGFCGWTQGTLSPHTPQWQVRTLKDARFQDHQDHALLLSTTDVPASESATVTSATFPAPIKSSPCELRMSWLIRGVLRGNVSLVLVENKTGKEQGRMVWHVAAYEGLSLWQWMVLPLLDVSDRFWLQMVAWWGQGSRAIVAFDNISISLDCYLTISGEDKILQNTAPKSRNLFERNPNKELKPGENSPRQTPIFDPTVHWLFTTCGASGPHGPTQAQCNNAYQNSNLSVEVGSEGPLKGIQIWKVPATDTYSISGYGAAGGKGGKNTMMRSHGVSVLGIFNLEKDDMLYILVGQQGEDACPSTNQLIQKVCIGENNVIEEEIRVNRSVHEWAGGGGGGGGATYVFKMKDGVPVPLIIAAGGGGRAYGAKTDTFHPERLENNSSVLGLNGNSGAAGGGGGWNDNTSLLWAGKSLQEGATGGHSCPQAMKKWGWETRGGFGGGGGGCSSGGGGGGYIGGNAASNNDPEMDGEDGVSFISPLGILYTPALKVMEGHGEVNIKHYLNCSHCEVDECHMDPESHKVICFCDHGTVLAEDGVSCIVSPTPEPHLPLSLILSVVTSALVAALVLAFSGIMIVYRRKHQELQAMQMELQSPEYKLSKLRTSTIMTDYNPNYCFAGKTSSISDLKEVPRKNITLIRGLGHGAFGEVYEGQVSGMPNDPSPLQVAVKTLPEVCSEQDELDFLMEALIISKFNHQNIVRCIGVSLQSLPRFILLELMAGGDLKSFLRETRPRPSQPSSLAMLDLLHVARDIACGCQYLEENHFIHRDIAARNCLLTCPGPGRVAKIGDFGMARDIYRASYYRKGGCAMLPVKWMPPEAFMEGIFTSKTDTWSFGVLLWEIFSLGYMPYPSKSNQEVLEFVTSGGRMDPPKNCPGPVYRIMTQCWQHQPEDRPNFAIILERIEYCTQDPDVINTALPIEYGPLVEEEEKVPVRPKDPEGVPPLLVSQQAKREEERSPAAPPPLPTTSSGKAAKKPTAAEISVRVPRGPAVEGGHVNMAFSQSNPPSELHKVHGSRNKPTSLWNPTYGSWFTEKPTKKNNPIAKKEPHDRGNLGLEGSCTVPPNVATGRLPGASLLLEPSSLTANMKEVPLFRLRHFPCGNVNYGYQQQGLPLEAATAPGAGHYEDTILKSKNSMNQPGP
Sequence of LYN (P07948 whole entry): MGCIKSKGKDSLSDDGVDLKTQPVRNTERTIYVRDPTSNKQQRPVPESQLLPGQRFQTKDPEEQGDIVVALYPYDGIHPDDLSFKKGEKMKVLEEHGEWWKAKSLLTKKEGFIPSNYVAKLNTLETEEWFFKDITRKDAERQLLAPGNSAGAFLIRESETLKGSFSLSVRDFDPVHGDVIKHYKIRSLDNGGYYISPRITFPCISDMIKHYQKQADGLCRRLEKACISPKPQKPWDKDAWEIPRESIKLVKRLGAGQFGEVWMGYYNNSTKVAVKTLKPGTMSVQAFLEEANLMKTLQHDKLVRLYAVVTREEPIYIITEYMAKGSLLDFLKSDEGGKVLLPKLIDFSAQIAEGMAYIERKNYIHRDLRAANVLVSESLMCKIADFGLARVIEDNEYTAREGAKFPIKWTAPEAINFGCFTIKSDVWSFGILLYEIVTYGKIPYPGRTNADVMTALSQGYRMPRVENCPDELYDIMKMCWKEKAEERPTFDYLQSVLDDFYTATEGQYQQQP
Sequence of FYN (P06241 whole entry): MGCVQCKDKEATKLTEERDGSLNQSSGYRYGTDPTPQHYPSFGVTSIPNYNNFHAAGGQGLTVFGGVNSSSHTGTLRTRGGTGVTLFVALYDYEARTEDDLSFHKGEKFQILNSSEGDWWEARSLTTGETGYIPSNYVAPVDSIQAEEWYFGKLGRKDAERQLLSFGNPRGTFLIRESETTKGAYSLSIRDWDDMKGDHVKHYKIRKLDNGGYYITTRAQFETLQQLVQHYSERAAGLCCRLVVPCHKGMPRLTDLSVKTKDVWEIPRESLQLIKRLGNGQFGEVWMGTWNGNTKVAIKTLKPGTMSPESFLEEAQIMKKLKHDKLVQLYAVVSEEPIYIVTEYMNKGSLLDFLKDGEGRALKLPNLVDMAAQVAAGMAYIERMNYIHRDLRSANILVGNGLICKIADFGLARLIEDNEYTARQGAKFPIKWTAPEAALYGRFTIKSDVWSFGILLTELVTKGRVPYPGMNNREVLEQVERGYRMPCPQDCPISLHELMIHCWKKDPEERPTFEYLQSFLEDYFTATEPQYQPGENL
Sequence of FGR (P09769 whole entry): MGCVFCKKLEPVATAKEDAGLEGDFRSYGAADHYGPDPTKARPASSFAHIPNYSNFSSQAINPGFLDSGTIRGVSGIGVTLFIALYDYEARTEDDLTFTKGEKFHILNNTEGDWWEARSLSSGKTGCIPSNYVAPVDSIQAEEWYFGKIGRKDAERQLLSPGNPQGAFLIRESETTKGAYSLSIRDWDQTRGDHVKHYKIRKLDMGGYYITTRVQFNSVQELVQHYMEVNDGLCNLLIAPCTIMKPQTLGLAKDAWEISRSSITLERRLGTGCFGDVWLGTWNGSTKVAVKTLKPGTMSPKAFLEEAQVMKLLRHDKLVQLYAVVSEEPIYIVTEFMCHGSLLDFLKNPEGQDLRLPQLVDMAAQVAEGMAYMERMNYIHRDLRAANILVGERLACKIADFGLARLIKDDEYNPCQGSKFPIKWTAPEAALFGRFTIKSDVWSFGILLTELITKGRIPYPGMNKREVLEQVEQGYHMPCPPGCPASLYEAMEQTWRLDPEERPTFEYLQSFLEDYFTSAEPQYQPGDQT
Sequence of Hck (P08631 whole entry): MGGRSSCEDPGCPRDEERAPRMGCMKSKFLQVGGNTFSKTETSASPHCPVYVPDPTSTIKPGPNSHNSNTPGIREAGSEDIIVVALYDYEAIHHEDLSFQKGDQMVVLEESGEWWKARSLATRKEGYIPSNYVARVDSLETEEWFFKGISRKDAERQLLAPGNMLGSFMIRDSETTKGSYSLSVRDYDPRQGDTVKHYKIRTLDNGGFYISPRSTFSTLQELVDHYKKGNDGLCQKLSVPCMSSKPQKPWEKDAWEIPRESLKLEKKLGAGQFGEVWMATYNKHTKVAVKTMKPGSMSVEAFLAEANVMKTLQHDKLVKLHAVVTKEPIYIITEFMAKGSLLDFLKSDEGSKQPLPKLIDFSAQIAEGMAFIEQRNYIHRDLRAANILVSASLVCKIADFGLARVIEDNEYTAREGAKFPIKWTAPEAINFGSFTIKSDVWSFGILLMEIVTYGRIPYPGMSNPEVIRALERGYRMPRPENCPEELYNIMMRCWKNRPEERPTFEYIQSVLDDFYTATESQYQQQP
Sequence of FGFR3(K650E) (P22607 23-806 K650E): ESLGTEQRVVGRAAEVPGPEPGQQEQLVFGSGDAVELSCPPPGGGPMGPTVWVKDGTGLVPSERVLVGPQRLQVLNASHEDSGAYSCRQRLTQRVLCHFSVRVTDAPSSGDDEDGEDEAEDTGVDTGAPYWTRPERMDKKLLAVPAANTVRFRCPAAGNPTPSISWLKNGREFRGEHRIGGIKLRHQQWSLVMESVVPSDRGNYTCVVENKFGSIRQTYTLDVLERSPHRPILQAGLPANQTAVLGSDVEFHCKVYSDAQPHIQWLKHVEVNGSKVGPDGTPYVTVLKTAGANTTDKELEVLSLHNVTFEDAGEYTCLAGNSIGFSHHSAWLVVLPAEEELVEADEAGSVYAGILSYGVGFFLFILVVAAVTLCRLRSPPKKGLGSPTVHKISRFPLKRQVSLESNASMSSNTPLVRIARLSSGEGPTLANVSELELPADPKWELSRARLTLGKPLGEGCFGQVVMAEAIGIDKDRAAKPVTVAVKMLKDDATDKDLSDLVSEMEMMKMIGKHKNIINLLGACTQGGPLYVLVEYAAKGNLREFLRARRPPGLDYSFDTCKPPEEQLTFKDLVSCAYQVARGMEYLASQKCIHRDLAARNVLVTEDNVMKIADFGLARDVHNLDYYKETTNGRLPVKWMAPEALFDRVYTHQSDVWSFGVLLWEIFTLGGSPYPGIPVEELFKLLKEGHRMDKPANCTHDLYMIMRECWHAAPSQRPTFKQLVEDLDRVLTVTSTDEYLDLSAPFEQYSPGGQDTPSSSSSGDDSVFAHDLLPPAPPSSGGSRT

- inhibition at 0.01 µM [1, 10]: < 39%
- inhibition at 0.1 µM [1, 11]: < 39%
- inhibition at 1 µM [1, 12]: > 60%
- inhibition at 0.01 µM ([2]; EPHA1, 10 nM, read-out: Average % Inh @ 10 nM): < 39%
- inhibition at 0.1 µM ([2]; EPHA1, 100 nM, read-out: Average % Inh @ 100 nM): 40 to 59%
- inhibition at 1 µM ([2]; EPHA1, 1 μM, read-out: Average % Inh @ 1 μM): > 60%
- inhibition at 1 µM [3]: 40 to 59%
- inhibition at 1 µM [4]: > 60%
- inhibition at 1 µM [5]: > 60%
- inhibition at 0.01 µM [6, 10]: < 39%
- inhibition at 0.1 µM [6, 11]: < 39%
- inhibition at 1 µM [6, 12]: > 60%
- inhibition at 0.01 µM [7, 10]: < 39%
- inhibition at 0.1 µM [7, 11]: 40 to 59%
- inhibition at 1 µM [7, 12]: > 60%
- inhibition at 0.01 µM [8, 10]: < 39%
- inhibition at 0.1 µM [8, 11]: > 60%
- inhibition at 1 µM [8, 12]: > 60%
- inhibition at 0.01 µM [9, 10]: < 39%
- inhibition at 0.1 µM [9, 11]: 40 to 59%
- inhibition at 1 µM [9, 12]: > 60%
Compound: O=C(Nc1ccc(F)nc1)C1CCCN1c1nc2c(c(Nc3cc(C4CC4)[nH]n3)n1)CCC2 (single isomer, unassigned) [Compound 2b, 1-(4-(5-cyclopropyl-1H-pyrazol-3-ylamino)-6,7-dihydro-5H-cyclopenta[d]pyrimidin-2-yl)-N-(6-fluoropyridin-3-yl)pyrrolidine-2-carboxamide]
